According to the supplement of paper PMC10307832:

Legend:
Assay in all cases: relative viability (nuclei count vs DMSO), 5 days (fraction); higher = more cells survive
BI-D1870 + Lapatinib = compound: CC(C)CCN1c2nc(Nc3cc(F)c(O)c(F)c3)ncc2N(C)C(=O)C1C [BI-D1870] + CS(=O)(=O)CCNCc1ccc(-c2ccc3ncnc(Nc4ccc(OCc5cccc(F)c5)c(Cl)c4)c3c2)o1 [Lapatinib] (partner 2 µM)
Procedure, shortened: (§1)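 Five library-drug doses in √10 steps were combined with a fixed anchor-drug dose, or a single drug was given alone, by pin tool to lung cancer cell lines in 1536-well plates the day after seeding. Nuclei were stained and counted after 5 days. Relative viability is the nuclei count in treated wells over that in vehicle wells, taken as the median of duplicate plates.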

Zebularine + Palbociclib = compound: O=c1ncccn1[C@@H]1O[C@H](CO)[C@@H](O)[C@H]1O [Zebularine] + CC(=O)c1c(C)c2cnc(Nc3ccc(N4CCNCC4)cn3)nc2n(C2CCCC2)c1=O [Palbociclib] (partner 0.5 µM)
Procedure, shortened: as §1

Zebularine + Phenformin = compound: O=c1ncccn1[C@@H]1O[C@H](CO)[C@@H](O)[C@H]1O [Zebularine] + N=C(N)NC(=N)NCCc1ccccc1 [Phenformin] (partner 250 µM)
Procedure, shortened: as §1

Zebularine + Luminespib = compound: O=c1ncccn1[C@@H]1O[C@H](CO)[C@@H](O)[C@H]1O [Zebularine] + CCNC(=O)c1noc(-c2cc(C(C)C)c(O)cc2O)c1-c1ccc(CN2CCOCC2)cc1 [Luminespib] (partner 0.01 µM)
Procedure, shortened: as §1

Cell Line | relative viability (BI-D1870 + Lapatinib; first compound 0.04 µM) | relative viability (BI-D1870 + Lapatinib; first compound 0.1265 µM) | relative viability (BI-D1870 + Lapatinib; first compound 0.4 µM) | relative viability (BI-D1870 + Lapatinib; first compound 1.265 µM) | relative viability (BI-D1870 + Lapatinib; first compound 4 µM) | relative viability (Zebularine + Palbociclib; first compound 1 µM) | relative viability (Zebularine + Palbociclib; first compound 3.162 µM) | relative viability (Zebularine + Palbociclib; first compound 10 µM) | relative viability (Zebularine + Palbociclib; first compound 31.62 µM) | relative viability (Zebularine + Palbociclib; first compound 100 µM) | relative viability (Zebularine + Phenformin; first compound 1 µM) | relative viability (Zebularine + Phenformin; first compound 3.162 µM) | relative viability (Zebularine + Phenformin; first compound 10 µM) | relative viability (Zebularine + Phenformin; first compound 31.62 µM) | relative viability (Zebularine + Phenformin; first compound 100 µM) | relative viability (Zebularine + Luminespib; first compound 1 µM) | relative viability (Zebularine + Luminespib; first compound 3.162 µM) | relative viability (Zebularine + Luminespib; first compound 10 µM) | relative viability (Zebularine + Luminespib; first compound 31.62 µM) | relative viability (Zebularine + Luminespib; first compound 100 µM)
NCI-H1993 | 0.855 | 0.774 | 0.88 | 0.809 | 0.789 | 0.726 | 0.704 | 0.615 | 0.633 | 0.695 | 0.556 | 0.477 | 0.534 | 0.449 | 0.548 | 0.908 | 0.687 | 0.749 | 0.815 | 0.847
NCI-H1734 | 1.27 | 1.07 | 0.975 | 1.01 | 0.72 | 0.408 | 0.334 | 0.322 | 0.3 | 0.239 | 0.444 | 0.363 | 0.26 | 0.282 | 0.24 | 0.197 | 0.171 | 0.185 | 0.217 | 0.178
HOP-62 | 1.07 | 1.08 | 0.934 | 1.06 | 0.825 | 0.496 | 0.437 | 0.218 | 0.158 | 0.152 | 0.827 | 0.653 | 0.286 | 0.282 | 0.266 | 0.991 | 0.906 | 0.263 | 0.296 | 0.178
LOU-NH91 | 0.837 | 0.717 | 0.782 | 0.837 | 0.677 | 0.54 | 0.524 | 0.518 | 0.552 | 0.47 | 0.674 | 0.717 | 0.437 | 0.693 | 0.549 | 0.332 | 0.33 | 0.479 | 0.298 | 0.3
NCI-H2228 | 1.2 | 0.854 | 0.989 | 0.927 | 0.482 | 0.861 | 0.637 | – | 0.552 | 0.216 | 0.313 | 0.313 | 0.182 | 0.323 | 0.221 | 0.198 | 0.147 | 0.175 | 0.226 | 0.153
PC-14 | 0.36 | 0.301 | 0.343 | 0.395 | 0.269 | 0.627 | 0.417 | 0.175 | 0.103 | 0.118 | 0.805 | 0.28 | 0.167 | 0.124 | 0.0723 | 0.107 | 0.134 | 0.158 | 0.131 | 0.157
NCI-H1437 | 0.899 | 0.686 | 0.76 | 0.802 | 0.653 | 0.308 | 0.33 | 0.308 | 0.453 | 0.329 | 0.333 | 0.311 | 0.229 | 0.328 | 0.376 | 1.22 | 1.23 | 0.956 | 1.16 | 0.59
NCI-H460 | 1.28 | 0.823 | 0.941 | 0.837 | 0.586 | 0.201 | 0.136 | 0.161 | 0.117 | 0.0697 | 0.601 | 0.592 | 0.364 | 0.127 | 0.0588 | 0.0314 | 0.0246 | 0.0322 | 0.0331 | 0.0289
NCI-H1666 | 0.825 | 0.543 | 0.639 | 0.909 | 0.383 | 0.629 | 0.642 | 0.58 | 0.689 | 0.654 | 0.594 | 0.551 | 0.531 | 0.591 | 0.495 | 1.01 | 0.932 | 0.966 | 1.01 | 0.751
NCI-H1651 | 0.828 | 0.666 | 0.769 | 0.892 | 0.647 | 0.525 | 0.491 | 0.507 | 0.557 | 0.352 | 0.347 | 0.401 | 0.273 | 0.369 | 0.256 | 0.986 | 0.831 | 0.688 | 0.738 | 0.519
NCI-H1755 | 1.11 | 0.982 | 1.08 | 1.16 | 0.992 | 0.496 | 0.455 | 0.45 | 0.474 | 0.415 | 0.671 | 0.612 | 0.592 | 0.684 | 0.53 | 0.481 | 0.426 | 0.39 | 0.522 | 0.44
NCI-H661 | 0.56 | 0.406 | 0.45 | 0.442 | 0.499 | 0.406 | 0.4 | 0.425 | 0.435 | 0.438 | 0.279 | 0.269 | 0.28 | 0.275 | 0.264 | 1.02 | 0.948 | 0.686 | 1.01 | 0.895
HARA | 0.973 | 0.722 | 0.842 | 0.998 | 0.74 | 0.242 | 0.279 | – | 0.292 | 0.235 | 0.506 | – | – | 0.436 | 0.272 | 0.86 | – | – | 0.833 | 0.445
NCI-H23 | 1.41 | 0.984 | 1.04 | 1.31 | 0.664 | 0.482 | 0.473 | – | 0.576 | 0.411 | 0.847 | 0.821 | 0.423 | 0.75 | 0.77 | 0.217 | 0.221 | 0.21 | 0.211 | 0.199
LCLC-97TM1 | 1.35 | 0.988 | 0.622 | 1.3 | 0.916 | 0.2 | 0.199 | 0.0967 | 0.102 | 0.111 | 0.401 | 0.413 | 0.322 | 0.256 | 0.272 | 0.806 | 0.777 | 0.427 | 0.241 | 0.21
EPLC-272H | 0.878 | 0.879 | 0.734 | 1.01 | 0.852 | 0.375 | – | 0.326 | 0.324 | 0.344 | 0.272 | 0.286 | 0.227 | 0.255 | 0.238 | 0.247 | 0.238 | 0.237 | 0.406 | 0.154
NCI-H1915 | 1.04 | 0.984 | 0.969 | 1.04 | 0.834 | 0.523 | 0.525 | 0.485 | 0.541 | 0.352 | 0.373 | 0.381 | – | 0.379 | 0.349 | 0.887 | 0.818 | – | 0.772 | 0.322
